Experimental data taken from patent US11649430B2 (priority 2018, dated 2023).

Tested on: R. solanacearum
Format: cell-based, Ralstonia solanacearum
Conditions: ΔrmyA mutant strain (more sensitive than WT); 0.4 mM; 24 hours

SMILES	R. solanacearum growth (OD)
COC1=C(O)C(=O)C2=C(C1=O)[C@H]1N[C@@H](Cc3c[nH]c4ccccc34)C(=O)N1C(C(=O)N[C@@H](CC(C)CO)C(=O)O)C2 (some centres unmarked) [Imizoquin A, imizoquin A]	decreases R. solanacearum growth modestly
COC1=C(O)C(=O)C2=C(C1=O)[C@H]1N[C@@H](Cc3c[nH]c4ccccc34)C(=O)N1C(C(=O)N[C@@H](CC(CO)CO)C(=O)O)C2 (some centres unmarked) [Imizoquin B, imizoquin B]	decreases R. solanacearum growth modestly
